# Structures can show the parent of a compound that is named as a salt.
# Key:
# Conditions in all cases: 72 h
# U2OS [1] = test: drug sensitivity score (DSS) for viability; higher = more toxic; extreme values may be limits of the assay
# HepG2 [2] = test: as above
# Caco-2 [3] = test: as above
# U2OS [4] = test: relative viability EC50 (midpoint between 100% and the lowest measured viability); higher = less toxic
# HepG2 [5] = test: as above
# Caco-2 [6] = test: as above
# U2OS [7] = test: cell viability relative to DMSO; higher = less toxic
# HepG2 [8] = test: as above
# Caco-2 [9] = test: as above
# Calu-3 [10] = test: drug sensitivity score (DSS) for viability; higher = more toxic; extreme values may be limits of the assay
# Vero E6 [11] = test: as above
# Calu-3 [12] = test: relative viability EC50 (midpoint between 100% and the lowest measured viability); higher = less toxic
# Vero E6 [13] = test: as above
# Calu-3 [14] = test: cell viability relative to DMSO; higher = less toxic
# Vero E6 [15] = test: as above
SMILES,drug sensitivity score (U2OS [1]),drug sensitivity score (HepG2 [2]),drug sensitivity score (Caco-2 [3]),relative viability EC50 (U2OS [4]) [µM],relative viability EC50 (HepG2 [5]) [µM],relative viability EC50 (Caco-2 [6]) [µM],cell viability (U2OS [7]; 1 nM) [%],cell viability (U2OS [7]; 10 nM) [%],cell viability (U2OS [7]; 100 nM) [%],cell viability (U2OS [7]; 1000 nM) [%],cell viability (U2OS [7]; 10000 nM) [%],cell viability (HepG2 [8]; 1 nM) [%],cell viability (HepG2 [8]; 10 nM) [%],cell viability (HepG2 [8]; 100 nM) [%],cell viability (HepG2 [8]; 1000 nM) [%],cell viability (HepG2 [8]; 10000 nM) [%],cell viability (Caco-2 [9]; 1 nM) [%],cell viability (Caco-2 [9]; 10 nM) [%],cell viability (Caco-2 [9]; 100 nM) [%],cell viability (Caco-2 [9]; 1000 nM) [%],cell viability (Caco-2 [9]; 10000 nM) [%],drug sensitivity score (Calu-3 [10]),drug sensitivity score (Vero E6 [11]),relative viability EC50 (Calu-3 [12]) [µM],relative viability EC50 (Vero E6 [13]) [µM],cell viability (Calu-3 [14]; 1 nM) [%],cell viability (Calu-3 [14]; 10 nM) [%],cell viability (Calu-3 [14]; 100 nM) [%],cell viability (Calu-3 [14]; 1000 nM) [%],cell viability (Calu-3 [14]; 10000 nM) [%],cell viability (Vero E6 [15]; 1 nM) [%],cell viability (Vero E6 [15]; 10 nM) [%],cell viability (Vero E6 [15]; 100 nM) [%],cell viability (Vero E6 [15]; 1000 nM) [%],cell viability (Vero E6 [15]; 10000 nM) [%]
CC(=O)NNC(=O)N1Cc2ccccc2Oc2ccc(Cl)cc21,0,0.1,0,> 10,> 10,> 10,98.5,95.9,101,99.9,102,98.5,102,96.1,94,87.7,105,100,107,95.5,99.7,,,,,,,,,,,,,,
CNC(=O)Nc1ccc(-c2nc(N3CC4CCC(C3)O4)c3cnn(C4CCC5(CC4)OCCO5)c3n2)cc1,,20.8,19.5,,0.0648,0.0381,,,,,,98.6,97.6,47.1,31.2,20.8,111,85.1,50.6,32.3,33.1,25.1,14.1,0.0122,0.109,94.2,67.2,36.7,28,30.7,94.1,93,70.1,43.8,36.4
Cc1cccc(C(=O)NCN2CCN(c3ccccc3C#N)CC2)c1,0,0,0,> 10,> 10,> 10,98.1,103,97.2,101,101,105,96.6,96.9,101,94.5,95.3,103,89.1,104,104,,,,,,,,,,,,,,
Nc1nccc(Oc2ccc(NC(=O)c3cn(COP(=O)(O)O)cc(-c4ccc(F)cc4)c3=O)cc2F)c1Cl,0,3.6,0,> 10,3.15,> 10,97.9,103,98.7,104,106,104,102,108,99.8,35,97.2,96.8,94,94.5,90.2,,0,,> 10,,,,,,106,103,105,97.5,102
O=C1NN(C(=O)Nc2ccc(Br)cc2)[C@@H](c2ccccc2)[C@@H]1c1ccccc1,0,0,0,> 10,> 10,> 10,97.3,95.4,98.5,94.8,101,104,89.3,91.1,106,89.1,103,98.8,100,98.6,96.7,0.3,,> 10,,96.5,90.4,93.8,91.2,86,,,,,
OC[C@H]1O[C@@H](n2cnc3c(N[C@H]4CCC[C@@H]4O)ncnc32)[C@H](O)[C@@H]1O,0,0,0,> 10,> 10,> 10,99.4,100,98.6,97.1,102,86.2,84,95,102,94,103,99.3,104,101,107,,0,,> 10,,,,,,103,102,98.9,99,97.3
N=C(N)Nc1ccc(Cl)cc1 [4-chlorophenylguanidine],0,0,0,> 10,> 10,> 10,102,95.9,99.7,96.5,101,99.6,99.2,107,115,93.2,103,100,97,95.1,95.6,0,,> 10,,93,89.4,94.6,91.7,102,,,,,
Nc1nc(NC2CC2)c2ncn([C@H]3C=C[C@@H](CO)C3)c2n1 [ABACAVIR SULFATE],0,0,0,> 10,> 10,> 10,99.9,102,97.1,106,99.7,101,95.2,97.7,90.3,96,102,104,94.3,98.4,95.1,0,,> 10,,89.4,96.3,97.7,100,97.1,,,,,
"O=C(O)COc1ccc(OCCNC[C@H](O)COc2ccccc2)cc1 [ICI-215,001]",,0,0,,> 10,> 10,,,,,,106,104,104,104,97.1,98.1,111,103,103,116,,0,,> 10,,,,,,106,97.5,101,104,92.6
O=C(/C=C/c1ccc2ccccc2n1)c1ccncc1 [PFK-015],6.4,8,5.5,2.69,1.99,2.09,93,94.8,95.4,94,0,106,89.6,110,85,0.1,93.3,96.3,95.8,90.6,29.7,2.5,6.2,,2.68,107,105,88,97,59.2,101,94.9,98,94.1,4.2
CC(C)C[C@H](CN)CC(=O)O [PREGABALIN],0,0,0.3,> 10,> 10,> 10,94.5,102,98.9,98.2,98.2,105,87.3,106,103,98.9,128,122,95,104,82.6,,0,,> 10,,,,,,93.5,105,106,103,100
CN[C@H]1CC[C@@H](c2ccc(Cl)c(Cl)c2)c2ccccc21 [SERTRALINE HYDROCHLORIDE],0.5,0.4,0.2,> 10,> 10,> 10,103,99.1,93,100,81.5,102,108,98.1,112,79.2,99.2,103,95.9,102,84.4,1.9,1.6,,> 10,102,105,104,103,58.3,98.5,97.4,102,93.6,77.8
Oc1ccc(Nc2nc(-c3ccc(Cl)cc3)cs2)cc1 [SKI-II],,0,0,,> 10,> 10,,,,,,90.8,68.7,106,81.3,98,100,98.1,104,99.9,90,0.5,0,> 10,> 10,103,96.2,97.8,90.5,85.6,102,104,99.2,107,97.5
Cn1c(COP(=O)(NCCBr)NCCBr)cnc1[N+](=O)[O-] [TH-302],0,0.4,0,> 10,> 10,> 10,103,105,99.9,105,108,97.6,97,118,103,81.3,107,94.5,98.6,97.7,89,,0,,> 10,,,,,,101,100,98.8,93.1,97.5
COC(=O)Nc1ccc(-c2nc(N3CCOCC3)c3cnn(C4CCN(C(=O)OC)CC4)c3n2)cc1 [WYE-354],0.4,2.8,5,> 10,3.34,1.38,99.3,98.3,104,98.6,84.8,104,107,94.8,102,44.8,98.3,99.3,97.3,83.1,48.3,3.8,2.2,,,93.6,91.4,95.8,92.2,52.2,97.4,99.7,91.8,96.4,64.8
CC(=O)Nc1ccc(C(=O)O)cc1 [acedoben],0,0,0,> 10,> 10,> 10,97.4,104,97.3,98,102,114,110,107,96.8,104,88.6,100,95.6,86.4,109,0,,> 10,,101,99.4,96.7,100,108,,,,,

# From the supplement of paper PMC13380429
